The text below walks through data of US20150094264A1, “USE OF OBESTATIN FOR MUSCLE REGENERATION” (UNIVERSIDADE DE SANTIAGO DE COMPOSTELA, priority 2012, published 2015).

Assay [1] relates to damaged tibialis anterior of mouse. Put plainly: Immunofluorescence analysis of eMHC expression in damaged tibialis anterior of mouse. It counts as in vivo, Swiss mice. To be noted: 300 nmol/kg weight; 96 h. The method, then: FIG. 11. Immufluorescence analysis of the effect of the exogenous administration of obestatin (96 h) on eMHC expression in the damaged tibialis anterior of mouse (animal model). Representative images of eMHC expression by immunofluorescence of sections of the tibialis anterior treated with obestatin (300 nmol/kg/24 h) or PBS (control) 96 h after inducing the damage. The upper panels correspond to staining with anti-eMHC antibody and the lower panels to staining with DAPI.
For the tissue immunofluorescence analysis, frozen sections were obtained which were fixed using a buffered solution of PBS-paraformaldehyde during 15 min, washed, permeabilized and blocked with PBT during 30 min, and later incubated with the corresponding primary antibody (anti-eMHC, anti-laminin antibody) diluted in PBT (1:50) during 12 h at 4° C. After three washes with PBS, the tissue sections were incubated with secondary antibody in PBT (1:1000) during 45 min at 37° C. […] The digital images of the cell culture were acquired with a Leica TCS-SP2 confocal microscope.
The mice (30 g; n=50) were maintained in 12 h light-darkness cycled with free access to standard diet and water. To induce the muscle damage, the tibialis anterior muscle (TA) was extracted under anaesthesia and subjected to three cycles of damage due to cold contact applying along the length of the muscle a metal bar cooled in liquid nitrogen. […]

For a further assay, the system named is Akt. Put plainly: Activation of Akt [pAkt(S473)] by obestatin in L6E9 myoblasts, immunoblot. It is filed as cell-based, rat. How it is done: (§1) FIG. 1. Activation of regulatory enzymes of mitogenesis and myogenesis by obestatin in L6E9 myoblasts and myotubes. Effect of obestatin on activity of regulatory enzymes of the mitogenic capacity (ERK 1/2), metabolic capacity (Akt and AMPK) and myogenic capacity (Akt and p38). Based on a dose-response study, the saturating dose for the maximum enzymatic activation is established for a concentration of 5 nM. […] Inactivation of AMPK is described in both cell models. The activation profile discovers bimodal characteristics for the action of obestatin: 1.—mitogenic activation in myoblasts; and, 2.—myogenic activation. The immunoblots are representative of 6 independent assays.
(§2) The studies were performed based on the use of L6E9 rat myoblasts which were maintained in growth medium (GM) formed by DMEM (Dulbecco's Modified Eagle Medium) supplemented with 10% fetal bovine serum (FBS), 100 U/mL penicillin, and 100 U/mL streptomycin. For the differentiation, the cells were cultured at 80-100% of confluence in GM and it was replaced for differentiation medium (DM) formed by DMEM supplemented with 2% FBS, 100 U/mL penicillin, and 100 U/mL streptomycin during 6 days.
(§3) The tissue or cell samples were directly lysed in RIPA buffer [Tris-HCl (pH 7.2), 50 mM; NaCl, 150 mM; EDTA, 1 mM; NP-40, 1% (v/v); Sodium deoxycholate, 0.25% (w/v); protease inhibitors (Sigma); phosphatise inhibitors (Sigma)]. The lysates were clarified by centrifugation (14,000×g during 15 min at 4° C.) and the protein concentration was quantified using QuantiPro™ BCA assay kit (Sigma). For immunoblot, equal amounts of protein were loaded which were fractionated in SOS-PAGE gels and transferred to nitrocellulose membranes. The immunoreactive bands were detected by chemiluminescence (Pierce ECL Western Blotting Substrate; Thermo Scientific, Ill., USA).
To define the mitogenic and myogenic effect of obestatin, the activation capacity was studied of intracellular targets regulating proliferation (ERK1/2) and/or differentiation (p38 and Akt). […]
For orientation: A western blot detects proteins with antibodies after separation by electrophoresis.

Assay [2] deals with L6E9 cells (rat myoblasts). The assay is described as follows: Expression of myogenic markers myogenin and MHC in L6E9 cells in differentiation medium, immunoblot. It counts as cell-based. To be noted: DM, six days.
From the text: FIG. 3. Effect of obestatin on the expression of the myogenic markers myogenin and MHC in L6E9 myoblasts. Effect of the stimulation with different doses of obestatin (0.01-100) on the expression of the myogenic markers myogenin and myosin (MHC) 6 days after the induction of the differentiation by the use of differentiation medium (DM: DMEN+2% FBS). The protein expression levels refer to the levels of myoblasts in growth medium (GM: DMEN+10% FBS), non-differentiated. The data are represented as % with respect to the cell expression in GM (mean±standard error of 6 independent experiments). The evaluation of the degree of expression was performed by immunoblot by the use of the ImageJ64 program (*, p<0.05).
as §2, §3
The L6E9 cells were cultured in DM complemented with different concentrations of obestatin in a range of 0.01-100 nM during six days.

For assay [3], the system named is tibialis anterior muscle in mice where the sciatic nerve has been denervated. Put plainly: Weight reduction of tibialis anterior after denervation of the sciatic nerve (model of muscular atrophy). It is filed as in vivo, Swiss mice. To be noted: 300 nmol/kg weight local, 14 days. The method, then:
FIG. 14. Analysis of the weight reduction of the tibialis anterior muscle in mice where the sciatic nerve has been denervated (model of muscular atrophy) under the exogenous administration of obestatin or vehicle (PBS). Swiss mice were used whereon the sciatic nerve was denervated in one of the limbs, using the other as control. The effect of the administration of obestatin (300 nmol/kg weight) or the vehicle (PBS; control) was assessed in the tibialis anterior muscle after 14 days. The data are expressed as % of weight reduction with respect to the control without denervation (n=5 per group; mean±standard error; *, p<0.005).
To study muscular atrophy, the sciatic nerve was denervated using Swiss mice. The denervation of the sciatic nerve was performed under anaesthesia, making an incision in the mid thigh on the lateral face of the rear right limb, separating the muscles and raising the sciatic nerve with surgical forceps. A portion of the nerve was isolated removing a fragment thereof. Finally the incision was closed. These animals were locally administered an injection of obestatin (300 nmol/kg weight) or the corresponding vehicle (PBS; control) in intervals of 24 h during 14 days.

The test system of another assay is L6E9 myotubes. Put plainly: Activation of regulatory enzymes by obestatin in L6E9 myotubes, immunoblot. It is filed as cell-based, rat. Conditions: obestatin 5 nM. The method, then:
as §1, with “assays. […]” for “assays.”
The tissue or cell samples were directly lysed in RIPA buffer [Tris-HCl (pH 7.2), 50 mM; NaCl, 150 mM; EDTA, 1 mM; NP-40, 1% (v/v); Sodium deoxycholate, 0.25% (w/v); protease inhibitors (Sigma); phosphatise inhibitors (Sigma)]. The lysates were clarified by centrifugation (14,000×g during 15 min at 4° C.) and the protein concentration was quantified using QuantiPro™ BCA assay kit (Sigma). […] The immunoreactive bands were detected by chemiluminescence (Pierce ECL Western Blotting Substrate; Thermo Scientific, Ill., USA). […]

Turning to obestatin, the “eMHC expression by immunofluorescence in relation to controls” value in assay [1] is “significantly increases”. Also, the “obestatin concentration at which activation of Akt [pAkt(S473)] was observed” value with Akt worked out at 0.1 nM. Moreover, the “obestatin concentration at which pAkt(S473) phosphorylation levels reached saturable values” in the assay with Akt (dose-response) is recorded as 5 nM. The “time post-stimulation of maximum pAkt(S473) levels” value in the assay with Akt (obestatin 5 nM) came out at 10 min. Also, in assay [2] (5 nM obestatin), the “increase of MHC expression in relation to the control cells” value was −1.6 and the “increase of myogenin expression in relation to the control cells” value is −1.7. In addition, the “obestatin concentration of maximum effect on myogenin and MHC expression” value in assay [2] (range 0.01-100 nM) is 5 nM. Besides, the “loss of tibialis anterior muscle mass (weight) in relation to vehicle (PBS) controls” value in assay [3] is listed as “reduces the loss of muscle mass”. Moreover, the “activation dynamics of Akt, p38, ERK1/2 and AMPKa compared with myoblasts” value in the assay on L6E9 myotubes is “similar”.
